In PubChem BioAssay (NCI):
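96-well plates; 48 h exposure; 5 concentrations. Endpoints by linear interpolation between flanking doses. Not reached: highest tested concentration assigned. The concentration for 50% growth inhibition is given as GI50. TGI: concentration producing complete growth inhibition.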

Columns and labels:
Experiment in all cases: NCI anticancer screen, dose series, 48 h
K-562 leukemia = test system: K-562 leukemia
CAKI-1 renal = test system: CAKI-1 renal
HOP-92 NSCLC = test system: HOP-92 NSCLC
T-47D breast = test system: T-47D breast
SK-MEL-28 melanoma = test system: SK-MEL-28 melanoma
SF-268 CNS = test system: SF-268 CNS
MALME-3M melanoma = test system: MALME-3M melanoma
A549 NSCLC = test system: A549 NSCLC
OVCAR-4 ovarian = test system: OVCAR-4 ovarian
UACC-62 melanoma = test system: UACC-62 melanoma
HS 578T breast = test system: HS 578T breast
NCI/ADR-RES ovarian = test system: NCI/ADR-RES ovarian
SN12C renal = test system: SN12C renal
UACC-257 melanoma = test system: UACC-257 melanoma
OVCAR-5 ovarian = test system: OVCAR-5 ovarian
MOLT-4 leukemia = test system: MOLT-4 leukemia
MCF7 breast = test system: MCF7 breast
OVCAR-3 ovarian = test system: OVCAR-3 ovarian
SK-OV-3 ovarian = test system: SK-OV-3 ovarian
SK-MEL-2 melanoma = test system: SK-MEL-2 melanoma
NCI-H460 lung = test system: NCI-H460 lung
HCT-116 colon = test system: HCT-116 colon
OVCAR-8 ovarian = test system: OVCAR-8 ovarian
COLO 205 colon = test system: COLO 205 colon
HOP-62 NSCLC = test system: HOP-62 NSCLC
PC-3 prostate = test system: PC-3 prostate
DU-145 prostate = test system: DU-145 prostate
HT29 colon = test system: HT29 colon
KM12 colon = test system: KM12 colon
IGROV1 ovarian = test system: IGROV1 ovarian
NCI-H23 lung = test system: NCI-H23 lung
M14 melanoma = test system: M14 melanoma
A498 renal = test system: A498 renal
SK-MEL-5 melanoma = test system: SK-MEL-5 melanoma
HL-60(TB) leukemia = test system: HL-60(TB) leukemia
ACHN renal = test system: ACHN renal
BT-549 breast = test system: BT-549 breast
SNB-19 CNS = test system: SNB-19 CNS
HCT-15 colon = test system: HCT-15 colon
UO-31 renal = test system: UO-31 renal
SR leukemia = test system: SR leukemia
CCRF-CEM leukemia = test system: CCRF-CEM leukemia
SNB-75 CNS = test system: SNB-75 CNS
U251 CNS = test system: U251 CNS
SF-295 CNS = test system: SF-295 CNS
NCI-H226 lung = test system: NCI-H226 lung
MDA-MB-435 = test system: MDA-MB-435
EKVX NSCLC = test system: EKVX NSCLC
RXF 393 renal = test system: RXF 393 renal
RPMI-8226 leukemia = test system: RPMI-8226 leukemia
786-0 renal = test system: 786-0 renal
LOX IMVI melanoma = test system: LOX IMVI melanoma
MDA-MB-231 breast = test system: MDA-MB-231 breast
SF-539 CNS = test system: SF-539 CNS
TK-10 renal = test system: TK-10 renal
SW-620 colon = test system: SW-620 colon

How did the GI50 (K-562 leukemia) turn out when `COc1ccc2c(c1)OCC1c3cc(O)ccc3OC21` (configuration not stated) was run?
Its GI50 is 63.5 µM.

And the TGI (K-562 leukemia)?
Its TGI is over 100 µM.

And the GI50 (CAKI-1 renal)?
The GI50 was 32.5 µM.

And the TGI (CAKI-1 renal)?
Its TGI is over 100 µM.

And the GI50 (HOP-92 NSCLC)?
The GI50 was 39.6 µM.

And the TGI (HOP-92 NSCLC)?
Its TGI is over 100 µM.

And the GI50 (T-47D breast)?
The GI50 was 16.2 µM.

And the TGI (T-47D breast)?
Its TGI is 65.4 µM.

What about the GI50 (SK-MEL-28 melanoma) of the same molecule?
The GI50 was over 100 µM.

And the TGI (SK-MEL-28 melanoma)?
Its TGI is over 100 µM.

What about the GI50 (SF-268 CNS) of the same molecule?
Its GI50 is 11 µM.

And the TGI (SF-268 CNS)?
The TGI was 74 µM.

What about the GI50 (MALME-3M melanoma) of the same molecule?
Its GI50 is 60.2 µM.

What about the TGI (MALME-3M melanoma) of the same molecule?
Its TGI is over 100 µM.

What about the GI50 (A549 NSCLC) of the same molecule?
Its GI50 is 60.9 µM.

What about the TGI (A549 NSCLC) of the same molecule?
Its TGI is over 100 µM.

What about the GI50 (OVCAR-4 ovarian) of the same molecule?
The GI50 was 28.1 µM.

And the TGI (OVCAR-4 ovarian)?
Its TGI is over 100 µM.

And the GI50 (UACC-62 melanoma)?
The GI50 was 35.9 µM.

And the TGI (UACC-62 melanoma)?
The TGI was over 100 µM.

And the GI50 (HS 578T breast)?
The GI50 was 41.2 µM.

And the TGI (HS 578T breast)?
The TGI was over 100 µM.

And the GI50 (NCI/ADR-RES ovarian)?
Its GI50 is 33.2 µM.

And the TGI (NCI/ADR-RES ovarian)?
Its TGI is over 100 µM.

What about the GI50 (SN12C renal) of the same molecule?
Its GI50 is 73.3 µM.

And the TGI (SN12C renal)?
Its TGI is over 100 µM.

And the GI50 (UACC-257 melanoma)?
Its GI50 is 78.3 µM.

What about the TGI (UACC-257 melanoma) of the same molecule?
Its TGI is over 100 µM.

What about the GI50 (OVCAR-5 ovarian) of the same molecule?
The GI50 was 39.5 µM.

And the TGI (OVCAR-5 ovarian)?
The TGI was over 100 µM.

And the GI50 (MOLT-4 leukemia)?
The GI50 was 35.4 µM.

What about the TGI (MOLT-4 leukemia) of the same molecule?
The TGI was over 100 µM.

What about the GI50 (MCF7 breast) of the same molecule?
The GI50 was 12.8 µM.

And the TGI (MCF7 breast)?
The TGI was 86.4 µM.

And the GI50 (OVCAR-3 ovarian)?
The GI50 was 27 µM.

What about the TGI (OVCAR-3 ovarian) of the same molecule?
The TGI was over 100 µM.

And the GI50 (SK-OV-3 ovarian)?
The GI50 was 63.2 µM.

What about the TGI (SK-OV-3 ovarian) of the same molecule?
Its TGI is over 100 µM.

What about the GI50 (SK-MEL-2 melanoma) of the same molecule?
The GI50 was over 100 µM.

What about the TGI (SK-MEL-2 melanoma) of the same molecule?
The TGI was over 100 µM.

And the GI50 (NCI-H460 lung)?
Its GI50 is 25 µM.

What about the TGI (NCI-H460 lung) of the same molecule?
The TGI was over 100 µM.

And the GI50 (HCT-116 colon)?
Its GI50 is 51.4 µM.

And the TGI (HCT-116 colon)?
The TGI was over 100 µM.

And the GI50 (OVCAR-8 ovarian)?
Its GI50 is over 100 µM.

What about the TGI (OVCAR-8 ovarian) of the same molecule?
The TGI was over 100 µM.

What about the GI50 (COLO 205 colon) of the same molecule?
Its GI50 is 32.7 µM.

And the TGI (COLO 205 colon)?
The TGI was over 100 µM.

And the GI50 (HOP-62 NSCLC)?
The GI50 was over 100 µM.

What about the TGI (HOP-62 NSCLC) of the same molecule?
Its TGI is over 100 µM.

What about the GI50 (PC-3 prostate) of the same molecule?
The GI50 was 34.4 µM.

And the TGI (PC-3 prostate)?
The TGI was over 100 µM.

What about the GI50 (DU-145 prostate) of the same molecule?
Its GI50 is 75.8 µM.

What about the TGI (DU-145 prostate) of the same molecule?
Its TGI is over 100 µM.

What about the GI50 (HT29 colon) of the same molecule?
The GI50 was 47.5 µM.

And the TGI (HT29 colon)?
The TGI was over 100 µM.

And the GI50 (KM12 colon)?
The GI50 was 38.7 µM.

And the TGI (KM12 colon)?
The TGI was over 100 µM.

What about the GI50 (IGROV1 ovarian) of the same molecule?
Its GI50 is 36 µM.

What about the TGI (IGROV1 ovarian) of the same molecule?
The TGI was 99.4 µM.

And the GI50 (NCI-H23 lung)?
The GI50 was 30.1 µM.

And the TGI (NCI-H23 lung)?
Its TGI is over 100 µM.

And the GI50 (M14 melanoma)?
The GI50 was 72.5 µM.

What about the TGI (M14 melanoma) of the same molecule?
Its TGI is over 100 µM.

What about the GI50 (A498 renal) of the same molecule?
The GI50 was 40.2 µM.

And the TGI (A498 renal)?
The TGI was over 100 µM.

What about the GI50 (SK-MEL-5 melanoma) of the same molecule?
The GI50 was 33 µM.

What about the TGI (SK-MEL-5 melanoma) of the same molecule?
The TGI was over 100 µM.

What about the GI50 (HL-60(TB) leukemia) of the same molecule?
The GI50 was 3.16 µM.

What about the TGI (HL-60(TB) leukemia) of the same molecule?
Its TGI is 27.3 µM.

What about the GI50 (ACHN renal) of the same molecule?
The GI50 was 35.8 µM.

And the TGI (ACHN renal)?
Its TGI is over 100 µM.

And the GI50 (BT-549 breast)?
The GI50 was 39 µM.

What about the TGI (BT-549 breast) of the same molecule?
The TGI was over 100 µM.

What about the GI50 (SNB-19 CNS) of the same molecule?
The GI50 was 52.1 µM.

And the TGI (SNB-19 CNS)?
The TGI was over 100 µM.

And the GI50 (HCT-15 colon)?
The GI50 was 40.6 µM.

What about the TGI (HCT-15 colon) of the same molecule?
Its TGI is over 100 µM.

What about the GI50 (UO-31 renal) of the same molecule?
Its GI50 is 24.3 µM.

And the TGI (UO-31 renal)?
The TGI was over 100 µM.

What about the GI50 (SR leukemia) of the same molecule?
The GI50 was 46.3 µM.

What about the TGI (SR leukemia) of the same molecule?
Its TGI is over 100 µM.

And the GI50 (CCRF-CEM leukemia)?
Its GI50 is 25.1 µM.

And the TGI (CCRF-CEM leukemia)?
Its TGI is over 100 µM.

What about the GI50 (SNB-75 CNS) of the same molecule?
The GI50 was 34 µM.

And the TGI (SNB-75 CNS)?
The TGI was over 100 µM.

And the GI50 (U251 CNS)?
Its GI50 is 54.9 µM.

What about the TGI (U251 CNS) of the same molecule?
The TGI was over 100 µM.

What about the GI50 (SF-295 CNS) of the same molecule?
Its GI50 is 9.91 µM.

And the TGI (SF-295 CNS)?
The TGI was 90.9 µM.

What about the GI50 (NCI-H226 lung) of the same molecule?
The GI50 was 18.6 µM.

What about the TGI (NCI-H226 lung) of the same molecule?
Its TGI is over 100 µM.

And the GI50 (MDA-MB-435)?
Its GI50 is 44.8 µM.

What about the TGI (MDA-MB-435) of the same molecule?
The TGI was over 100 µM.

What about the GI50 (EKVX NSCLC) of the same molecule?
Its GI50 is 27.8 µM.

What about the TGI (EKVX NSCLC) of the same molecule?
The TGI was over 100 µM.

What about the GI50 (RXF 393 renal) of the same molecule?
The GI50 was 72.6 µM.

What about the TGI (RXF 393 renal) of the same molecule?
The TGI was over 100 µM.

And the GI50 (RPMI-8226 leukemia)?
Its GI50 is 32.8 µM.

And the TGI (RPMI-8226 leukemia)?
The TGI was over 100 µM.

And the GI50 (786-0 renal)?
Its GI50 is 78.9 µM.

And the TGI (786-0 renal)?
Its TGI is over 100 µM.

What about the GI50 (LOX IMVI melanoma) of the same molecule?
Its GI50 is 42.1 µM.

What about the TGI (LOX IMVI melanoma) of the same molecule?
Its TGI is over 100 µM.

And the GI50 (MDA-MB-231 breast)?
The GI50 was 13.7 µM.

And the TGI (MDA-MB-231 breast)?
Its TGI is 92.2 µM.

What about the GI50 (SF-539 CNS) of the same molecule?
Its GI50 is 54.5 µM.

And the TGI (SF-539 CNS)?
Its TGI is over 100 µM.

What about the GI50 (TK-10 renal) of the same molecule?
The GI50 was 38.9 µM.

What about the TGI (TK-10 renal) of the same molecule?
The TGI was over 100 µM.

What about the GI50 (SW-620 colon) of the same molecule?
The GI50 was over 100 µM.

What about the TGI (SW-620 colon) of the same molecule?
The TGI was over 100 µM.
